# Like-named read-outs stand apart in the source and are kept apart here.
# Assays:
# [1] = cited from earlier work
# [2] = Equilibrium solubility measurement (shake-flask) in blank FaSSIF, FaSSIF, FeSSIF; type: physicochemical; settings: for solubility at 72 h: thermodynamic from solid, pH 6.5, 37°C, mean ± S.D., N = 3; for Ratio (fed/fasted) Sdissolv: FeSSIF/FaSSIF, corresponds to Fafed/Fafasted predicted by Eq. (18)
# Procedure: A shake-flask method was used for equilibrium solubility measurement. Each drug (10 mg) was added to the 15 mL test tube. Blank FaSSIF (28.7 mM phosphate buffer, pH 6.5 adjusted by NaOH), FaSSIF (3 mM TC, 0.75 mM EL in blank FaSSIF), or FeSSIF (15 mM TC, 3.75 mM EL in blank FaSSIF) was added. The test tube was placed horizontally in a reciprocal shaker. After shaking for 72 h at 37°C (at 90 rpm, motion width: 2.5 cm), the sample was filtered (hydrophilic PVDF, φ = 4.0 mm, pore size: 0.22 µm, Merck). The first few droplets were discarded to avoid filter adsorption. The concentration of each drug was measured by UV absorbance. […] After measuring the final pH (9615S-10D Standard ToupH electrode (HORIBA Advanced Techno Co., Ltd., Kyoto, Japan)), the residual particles were collected by vacuum filtration and analyzed by powder X-ray diffraction (PXRD) (Supplemental Information Figure S1).
# [3] = Octanol-water partition/distribution coefficient (logPoct, logDoct); type: physicochemical; settings: calculated from logPoct and pKa using the Henderson-Hasselbalch equation
# Source text: Table II Physicochemical Properties and Caco-2 Permeability of Model Drugs | column: logDoct,pH 6.5^c
# Caco-2 = test system: Caco-2; design: method as in PMID 9795088, PMID 10767597, PMID 15032311; settings: cited from earlier work
# [4] = pKa measurement (SiriusT3, UV-metric/pH-metric titration); type: physicochemical; settings: ionic strength 0.168 mol/L, 37°C
# Procedure: The pKa measurements were performed using a SiriusT3 automatic titrator, with a spectrometric (UV-metric) or titration (pH-metric) method. The UV-metric method used a fiber optic dip probe, a deuterium lamp UV light source, and a photodiode array detector to capture the absorption spectra of a sample solution over the course of three titrations, across the pH range 2.0–12.0. […] Titrations were carried out under a controlled temperature of 37 ± 0.2°C.
# SiriusT3 software v2.0 was used to apply principal component analysis to the spectral data to resolve the molar absorptivity spectra of each sample species and determine the psKa values of the compounds in the co-solvent. The pKa values under aqueous conditions were calculated from the co-solvent data using the Yasuda-Shedlovsky extrapolation method.
# Additional potentiometric titrations were performed for each drug, which confirmed that no additional non-UV active pKas were present within the titration pH range.
# [5] = μFLUX dissolution-permeation flux experiment; settings: for Ratio (fed/fasted) CD,final / Ratio (fed/fasted) JμFLUX: FeSSIF/FaSSIF, μFLUX dose 1/10 of the clinical dose; for fu / fraction unbound: calculated by Eq. (9) (Sdissolv,u/Sdissolv); for fraction unbound: pH 6.5, fu; for CD,final: measured after filtration, 1/10 of clinical dose, mean ± S.D., N = 3; for JμFLUX: average of 90 to 120 min (pranlukast 210 to 240 min); for Peff,μFLUX: calculated based on CD,final; for Time after which CD reached a plateau: donor solution; for kdiss: calculated from the initial dissolution rate in μFLUX; for Pep,u,μFLUX: Peff,μFLUX/fu
# [6] = design: method as in PMID 31863733; settings: previous prediction; cited from earlier work
# [7] = FaRLS diagnosis by Fa equation and Peff equation (Table S3, dose number); settings: for Dose number, Fasted / Dose number, Fed: clinical dose; for Dose number, Fasted: Sdissolv in FaSSIF; for Dose number, Fed: Sdissolv in FeSSIF; for fraction unbound: human, bile micelles in FaSSIF, pH 6.5
# [8] = design: method as in PMID 20307655, PMID 19465123, PMID 17828749, PMID 23994640; settings: pH 6.5; cited from earlier work
# [9] = clinical AUC ratio fed/fasted, humans; cited from earlier work
# [10] = assumed to be the same as Caco-2 Papp, cited from earlier work
# [11] = FaSSIF, read-out: Solubility, FaSSIF
# [12] = FeSSIF, read-out: Solubility, FeSSIF
# [13] = blank FaSSIF, read-out: Solubility, Blank FaSSIF
# [14] = bile micelles in FaSSIF, FaSSIF
# [15] = bile micelles in FeSSIF, FeSSIF
"solubility at 72 h [2, 11] [µg/mL]","solubility at 72 h [2, 12] [µg/mL]","solubility at 72 h [2, 13] [µg/mL]","logDoct,pH 6.5 [3]","Ratio (fed/fasted) CD,final [5]",Ratio (fed/fasted) JμFLUX [5],"fraction unbound [5, 14]","CD,final ([5]; donor FaSSIF pH 6.5) [µg/mL]",JμFLUX ([5]; donor FaSSIF),"Peff,μFLUX ([5]; donor FaSSIF)","CD,final ([5]; donor FeSSIF pH 6.5)",JμFLUX ([5]; donor FeSSIF),"Peff,μFLUX ([5]; donor FeSSIF)","Dose number, Fasted [7]","Dose number, Fed [7]",Ratio (fed/fasted) Sdissolv [2],"fraction unbound [5, 15]",Structure (SMILES),logPoct [1],Caco-2 Papp (Caco-2),Ratio (fed/fasted) AUCr [9],other results
,,,,,,,,,,,,,,,,,Cc1cc(C#N)cc(C)c1Oc1nc(Nc2ccc(C#N)cc2)nc(N)c1Br [etravirine],> 5,,,
3.4,12,1.8,2.6,,,,,,,,,,,,,,CO[C@H]1/C=C/O[C@@]2(C)Oc3c(C)c(O)c4c(O)c(c5c(nc6cc(C)ccn65)c4c3C2=O)NC(=O)/C(C)=C\C=C\[C@H](C)[C@H](O)[C@@H](C)[C@@H](O)[C@@H](C)[C@H](OC(C)=O)[C@@H]1C [Rifaximin],,1 [55] 10^–6 cm/s,,"pKa ([4]; acidic pKa, read-out: pKa (A)): < 2; pKa ([4]; basic pKa, read-out: pKa (B)): 8.29"
,,,,,,,,,,,,,,,,,Cc1cn(-c2cc(NC(=O)c3ccc(C)c(Nc4nccc(-c5cccnc5)n4)c3)cc(C(F)(F)F)c2)cn1.Cl [nilotinib HCl],> 5,,,
,,,,,,,,,,,,,,,,,COc1cc(F)c(C(C)C)cc1-c1ccc(C(F)(F)F)cc1CN1C(=O)O[C@H](c2cc(C(F)(F)F)cc(C(F)(F)F)c2)[C@@H]1C [anacetrapib],> 5,,,
41 ± 1,87 ± 1,30 ± 1,2.2,1.9,0.91,0.73,49 ± 0,6.7 ± 0.8 10–^3 μg/cm^2/s,14 ± 2 10^–5 cm/s,95 ± 0 µg/mL,6.1 ± 0.2 10–^3 μg/cm^2/s,6.4 ± 0.2 10^–5 cm/s,23,9,2.1,0.34,COc1ccccc1Oc1c(NS(=O)(=O)c2ccc(C(C)(C)C)cc2)nc(-c2ncccn2)nc1OCCO [Bosentan],3.8,1 [52] 10^–6 cm/s,1.1,"kdiss ([5]; Fasted): 0.0004708 s⁻¹; kdiss ([5]; Fed): 0.0007219 s⁻¹; Pep,u,μFLUX ([5]; donor FaSSIF): 18 ± 2 10^–5 cm/s; Pep,u,μFLUX ([5]; donor FeSSIF): 19 ± 1 10^–5 cm/s; Time after which CD reached a plateau [5]: 20 min; Dn ([7]; Fasted): 5.9; Do ([7]; Fasted): 23; Pep ([7]; Fasted): 0.73 10^-6 cm/s; Pep' ([7]; Fasted): 7.3 10^-6 cm/s; Dn ([7]; Fed): 9.1; Do ([7]; Fed): 9.2; Pep ([7]; Fed): 0.34 10^-6 cm/s; Pep' ([7]; Fed): 3.4 10^-6 cm/s; fraction unbound [7]: 0.73; Pep,u ([10]; Fasted): 1 10^-6 cm/s; Pep,u ([10]; Fed): 1 10^-6 cm/s; pKa ([4]; acidic pKa, read-out: pKa (A)): 4.87"
77 ± 1,178 ± 2,46 ± 1,2.3,3.1,0.81,0.6,72 ± 0,7.4 ± 0.7 10–^3 μg/cm^2/s,10 ± 1 10^–5 cm/s,220 ± 0^ h μg/mL,6.0 ± 0.7 10–^3 μg/cm^2/s,2.7 ± 0.3 10^–5 cm/s,20,7,2.3,0.26,CCc1c(Cl)c(O)c(Cl)c(O)c1C(=O)O[C@H]1[C@H](O)[C@H](OC)[C@H](OC/C2=C\C=C\C[C@H](O)/C(C)=C/[C@H](CC)[C@@H](O[C@@H]3OC(C)(C)[C@@H](OC(=O)C(C)C)[C@H](O)[C@@H]3O)/C(C)=C/C(C)=C/C[C@@H]([C@@H](C)O)OC2=O)O[C@@H]1C [Fidaxomicin],3.7,,1.0,"kdiss ([5]; Fasted): 0.0002967 s⁻¹; Pep,u,μFLUX less in the fed condition than in the fasted condition ([5]; FeSSIF vs FaSSIF): about 40%; kdiss ([5]; Fed): 0.0007389 s⁻¹; Pep,u,μFLUX ([5]; donor FaSSIF): 17 ± 2 10^–5 cm/s; Pep,u,μFLUX ([5]; donor FeSSIF): 10 ± 1 10^–5 cm/s; Time after which CD reached a plateau [5]: 20 min; Dn ([7]; Fasted): 3.7; Do ([7]; Fasted): 20; Pep ([7]; Fasted): 0.055 10^-6 cm/s; Pep' ([7]; Fasted): 0.55 10^-6 cm/s; Dn ([7]; Fed): 9.3; Do ([7]; Fed): 7.2; Pep ([7]; Fed): 0.024 10^-6 cm/s; Pep' ([7]; Fed): 0.24 10^-6 cm/s; fraction unbound [7]: 0.6; Pep,u ([10]; Fed): 0.092 10^-6 cm/s; pKa ([4]; acidic pKa, read-out: pKa (A)): 5.15"
,,,,,,,,,,,,,,,,,CC1(C)CCC(CN2CCN(c3ccc(C(=O)NS(=O)(=O)c4ccc(NCC5CCOCC5)c([N+](=O)[O-])c4)c(Oc4cnc5[nH]ccc5c4)c3)CC2)=C(c2ccc(Cl)cc2)C1 [venetoclax],> 5,,,
,,,4.5,,,0.011,,,,,,,43,14,,0.0043,C#C[C@]1(O)CC[C@H]2[C@@H]3CCC4=Cc5oncc5C[C@]4(C)[C@H]3CC[C@@]21C [Danazol],4.5,,,
,,,,20,2.4,0.038,56 ± 1,0.20 ± 0.05 10–^3 μg/cm^2/s,0.37 ± 0.09 10^–5 cm/s,1100 ± 0^ h μg/mL,0.47 ± 0.16 10–^3 μg/cm^2/s,0.043 ± 0.015 10^–5 cm/s,20,2,9.1,0.004,O=C(Nc1cccc2c(=O)cc(-c3nnn[nH]3)oc12)c1ccc(OCCCCc2ccccc2)cc1 [Pranlukast],,0.08 [54] 10^–6 cm/s,1.3,"Bound to bile micelles ([5]; FeSSIF): 99.6%; fu ([5]; FeSSIF): 0.0041; Pep,u,μFLUX ([5]; donor FaSSIF): 10 ± 2 10^–5 cm/s; Pep,u,μFLUX ([5]; donor FeSSIF): 10 ± 4 10^–5 cm/s; Solubility, Blank FaSSIF [8]: 3 µg/mL; Solubility, FaSSIF [8]: 88 µg/mL; Solubility, FeSSIF [8]: 800 µg/mL"

Structure (SMILES),"solubility at 72 h [2, 11] [µg/mL]","solubility at 72 h [2, 12] [µg/mL]","solubility at 72 h [2, 13] [µg/mL]","logDoct,pH 6.5 [3]","Ratio (fed/fasted) CD,final [5]",Ratio (fed/fasted) JμFLUX [5],"fraction unbound [5, 14]","CD,final ([5]; donor FaSSIF pH 6.5) [µg/mL]",JμFLUX ([5]; donor FaSSIF),"Peff,μFLUX ([5]; donor FaSSIF)","CD,final ([5]; donor FeSSIF pH 6.5)",JμFLUX ([5]; donor FeSSIF),"Peff,μFLUX ([5]; donor FeSSIF)","Dose number, Fasted [7]","Dose number, Fed [7]",Ratio (fed/fasted) Sdissolv [2],"fraction unbound [5, 15]",logPoct [1],Caco-2 Papp (Caco-2),Ratio (fed/fasted) AUCr [9],other results
Cc1ccc(-c2cc(C(F)(F)F)nn2-c2ccc(S(N)(=O)=O)cc2)cc1 [Celecoxib],,,,3.5,1.7,1.7,0.069,37 ± 1,6.7 ± 0.4 10–^3 μg/cm^2/s,18 ± 2 10^–5 cm/s,62 ± 1 µg/mL,11 ± 1 10–^3 μg/cm^2/s,18 ± 1 10^–5 cm/s,67,25,2.2,,3.5,18 [56] 10^–6 cm/s,1.6,"fu ([5]; FeSSIF): 0.031; Time after which CD reached a plateau [5]: 20 min; Food effect predicted by the GUT framework [6]: 2.3; Solubility, Blank FaSSIF [8]: 3.2 µg/mL; Solubility, FaSSIF [8]: 46.2 µg/mL; Solubility, FeSSIF [8]: 103 µg/mL"

# From article PMC12592319, “Predicting Food Effect On Oral Drug Absorption For Solubility-Epithelial Membrane Permeation-Limited Cases With Bile Micelle Solubilization” (Pharmaceutical Research, 2025)
